Read-outs that look alike come from different tables or passages of the source.
How the values were obtained:
[1] = tested on: guinea pig ileum longitudinal muscle with myenteric plexus; experiment: Guinea Pig Ileum Test (electrically stimulated longitudinal muscle, inhibition of twitch height); type: cell-based; details: ratio of IC50 of reference Met5-enkephalin (given as 100) to IC50 of test compound, same preparation, averaged over four preparations
Method: Adult male guinea pigs (Charles River, Hartley strain) weighing 300-500 g. are decapitated, and the terminal ileum is exposed by reflecting the overlying cecum, severed at the ileocecal juncture, and removed while cutting the mesenteric attachments to avoid excessive traction on the tissue. The ileum (about 30 cm. in length) is transferred to a beaker containing warm modified Krebs-Henseleit solution (118 mM sodium chloride, 4.75 mM potassium chloride, 2.45 mM calcium chloride, 1.19 mM potassium dihydrogen phosphate, 1.2 mM magnesium sulfate, 25 mM sodium bicarbonate, 11 mM glucose, 20 μM choline chloride and 0.125 μM pyrilamine maleate). The terminal (aboral) portion (about 10 cm. in length) is discarded, and segments (3-4 cm. in length) are cut from the remainder and gently slid onto a glass rod (5-6 mm. in diameter) and arranged so that the mesenteric attachment is in a straight line. A cotton swab moistened in the solution is then carefully used to separate the longitudinal muscle from the underlying circular muscle. The longitudinal muscle and adhering myenteric plexus is then gently removed from the remaining tissue with forceps.
Strips of thus prepared longitudinal muscle are mounted in a double-jacketed organ bath (5 ml.) under tension (1.0 g.), connected to isometric transducers (Grass FT 0.03), bathed in the modified Krebs-Henseleit solution described above, aerated with oxygen-carbon dioxide (95:5) and maintained at 37° C.
Stimulators (Grass S-44) are set to deliver repetitive monphasic square wave field stimulation (supramaximal voltage, 0.10 Hz., 0.25 msec. duration) through platinum ring electrodes at the top and bottom of the bath. Regular contractions of the muscle, which result from electrically-induced liberation of acetylcholine from postganglionic parasympathetic nerves, are recorded on a polygraph (Grass model 5). Following tissue equilibration (45-60 min.) and repeated washing (every 10 min.) an aqueous solution of a reference or test compound is added to the bath in a microliter volume (1.25-250 μl) and reductions in muscle twitch height are recorded. More compound can be added […] first washing the preparation.
From the results a half-maximal inhibitory concentration (IC50) value for the compound is computed by regression analysis of a linear plot of logarithm of concentration against percent of inhibition of twitch height (probits). The ratio of the […] of a reference compound to that of a test compound tested in the same preparation is the molar potency ratio. Usually four preparations are tested simultaneously by the same person (N=4), and the resulting four molar potency ratios are averaged.
The following results were obtained using the examples as test compounds and Met^5 -enkephalin as the reference compound: […]

[2] = tested on: Male Swiss-Webster mice; experiment: Mouse Acetylcholine Writhing Test; type: in vivo; details: 20 min, subcutaneous, approximate, acetylcholine 3.2 mg./kg. i.p. 20 min after dosing
Method: Male Swiss-Webster mice each weighing 18-24 g. are treated subcutaneously (10 ml./kg. injection volume) or orally with the test compound in an aqueous vehicle. Twenty minutes thereafter each mouse is injected intraperitoneally with acetylcholine (3.2 mg./kg.) in aqueous sodium chloride (0.9%). This dose of acetylcholine causes one or more characteristic writhes in the two minute period following injection in control mice which receive the aqueous vehicle not containing the test compound. […] Test compounds are screened at doses of 100 and 30 mg./kg. subcutaneously and 300 and 100 mg./kg. orally using 15 mice at each dose level. ED50 values for active compounds are estimated by probit analysis of quantal scores at four or more dose levels using 15 mice at each dose level.

[3] = tested on: rat; details: rat tail flick, cited from earlier work
[4] = tested on: opiate receptor; details: rat brain membranes; cited from earlier work
[5] = tested on: guinea pig ileum; details: cited from earlier work
[6] = tested on: mouse vas deferens; details: cited from earlier work

Molecule | Average Molar Potency Ratio [1] | further results
C[C@@H](NC(=O)[C@@H](N)Cc1ccc(O)cc1)C(=O)NCCc1ccccc1.Cl.O [Example 1, L-tyrosyl-N-(2-phenylethyl)-D-alaninamide monohydrochloride hydrate (4:5)] | 14 | –
C[C@@H](NC(=O)[C@@H](N)Cc1ccc(O)cc1)C(=O)N(C)CCCc1ccccc1.Cl.O [Example 2, L-tyrosyl-N-methyl-N-(3-phenylpropyl)-D-alaninamide monohydrochloride monohydrate] | 9 | ED50 [2]: > 10 mg/kg
CCN(CCCc1ccccc1)C(=O)[C@@H](C)NC(=O)[C@@H](N)Cc1ccc(O)cc1.Cl [Example 4, L-tyrosyl-N-ethyl-N-(3-phenylpropyl)-D-alaninamide monohydrochloride] | 4 | ED50 [2]: > 30 mg/kg
C[C@@H](NC(=O)[C@@H](N)Cc1ccc(O)cc1)C(=O)NCCCCc1ccccc1.Cl [Example 5, L-tyrosyl-N-(4-phenylbutyl)-D-alaninamide monohydrochloride] | 12 | –
C[C@@H](NC(=O)[C@@H](N)Cc1ccc(O)cc1)C(=O)NCCCCCc1ccccc1.Cl.O [Example 6, L-tyrosyl-N-(5-phenylpentyl)-D-alaninamide monohydrochloride monohydrate] | 30 | –
C[C@@H](NC(=O)[C@@H](N)Cc1ccc(O)cc1)C(=O)N(CCCc1ccccc1)CCN(C)C.Cl.Cl [Example 7, L-tyrosyl-N-[2-(dimethylamino)ethyl]-N-(3-phenylpropyl)-D-alaninamide dihydrochloride] | 4 | –
C[C@@H](CCc1ccccc1)NC(=O)[C@@H](C)NC(=O)[C@@H](N)Cc1ccc(O)cc1.Cl [Example 8, L-tyrosyl-N-(1-S-methyl-3-phenylpropyl)-D-alaninamide monohydrochloride] | 115 | –
C[C@H](CCc1ccccc1)NC(=O)[C@@H](C)NC(=O)[C@@H](N)Cc1ccc(O)cc1.Cl [Example 9, L-tyrosyl-N-(1-R-methyl-3-phenylpropyl)-D-alaninamide monohydrochloride] | 12 | –
CSCCCN(CCCc1ccccc1)C(=O)[C@@H](C)NC(=O)[C@@H](N)Cc1ccc(O)cc1.CSCCCN(CCCc1ccccc1)C(=O)[C@@H](C)NC(=O)[C@@H](N)Cc1ccc(O)cc1.Cl.Cl.O [Example 10, L-tyrosyl-N-[3-(methylthio)propyl]-N-(3-phenylpropyl)-D-alaninamide monhydrochloride hemihydrate] | 15 | –
C[C@@H](NC(=O)[C@@H](N)Cc1ccc(O)cc1)C(=O)N(CCCc1ccccc1)CCC[S+](C)[O-].Cl (stereo partly drawn) [Example 11, L-tyrosyl-N-[3-(methylsulfinyl)propyl]-N-(3-phenylpropyl)-D-alaninamide monohydrochloride] | 3 | –
C[C@@H](NC(=O)[C@@H](N)Cc1ccc(O)cc1)C(N)=O [H-Tyr-D-Ala-NH2] | – | times less potent than morphine ([3]; intravenously): greater than 10 times; times less potent than morphine ([3]; intraventricularly): 200 times; times less affinity than morphine [4]: 830 times
C[C@@H](NC(=O)[C@@H](N)Cc1ccc(O)cc1)C(=O)NCCNCCc1ccccc1 [HTyrD-AlaNH(CH2)2 NH(CH2)2 Phenyl] | – | potency relative to Met-enkephalin [5]: < 1%; potency relative to Met-enkephalin [6]: < 1%
L-tyrosyl-N-(3-phenylpropyl)-D-alaninamide monohydrochloride sesquihydrate [Example 3] | 117 | –
Met^5 -enkephalin [reference compound] | 100 | –
